Reference: US20060018857A1, “Conditioning surface-active preparation” (priority 2004, published 2006)

Legend:
[1] = Sensory assessment of skin feel on the treated forearm; format: in vivo, human; conditions: FIG. 1; versus standard co-surfactant Cocamidopropylbetaine; inside of forearm
Source text: The conditioning properties of two surfactant mixtures were compared with one another by sensory assessment. After the sample composition had been completely absorbed onto the skin, the upper side of the middle and index fingers was slowly drawn without pressing over the treated inside of the forearm. If the skin surface was felt to be without friction, this corresponded to a soft skin feel.
In FIG. 1, marks in the left column favor the standard co-surfactant and marks in the right column favor the inventive co-surfactant for that property. In FIG. 1, square marks indicate a high degree of significance; diamonds indicate a medium degree of significance and circles indicate a low degree of significance (as indicated also by the length of the horizontal lines through the marks).

[2] = Half head test, shampoo versus standard; format: in vivo, human
Method: Each test was conducted on 10 volunteers by trained and skilled people. Each half of the head was prewashed and then treated with the corresponding products. During the test, performance properties, such as skin feel, were evaluated first, followed by such parameters as combability, feel, luster and volume.

[3] = Adsorption of sodium lauryl ether sulfate onto skin; parameters: species or system human; conditions: FIG. 4; versus standard co-surfactant cocoglutamate
[4] = FIG. 2, versus standard co-surfactant Cocamidopropylbetaine, no added polymer
[5] = FIG. 3, versus standard co-surfactant Cocamidopropylbetaine and a polymer

Substance: Laureth-7 Citrate
- Skin feel (softness), sensory assessment [1]: felt to be softer
- Combability of hair in the dry and wet state [2, 4]: can be combed far better both in the dry and in the wet state
- Feel properties of hair [2, 4]: distinctly better
- Conditioning properties ([2]; FIG. 2, versus standard co-surfactant Cocamidopropylbetaine, no added polymer, 10 volunteers): clearly superior conditioning properties
- Combability of dry hair [2, 5]: improved combability of dry hair
- Feel of the hair [2, 5]: more pleasant feel of the hair
- Prevention of adsorption of sodium lauryl ether sulfate onto skin [3]: prevented considerably more effectively
